In patent US8173635B2, “Kinase inhibitors” (Vertex Pharmaceuticals Incorporated, priority 2007, dated 2012):

Assays:
Assay type in all cases: biochemical
PKC theta kinase = PKC theta kinase (Homo sapiens, UniProt Q04759); assay: PKC theta kinase inhibition, coupled-enzyme NADH absorbance assay (Ki); conditions: 240 μM ATP, 18 nM PKC theta, 30° C.; read-out: Ki PKC theta
Procedure, shortened: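 Enzyme and compound equilibrated 10 min at 30 °C before reaction in HEPES pH 7.5 buffer with MgCl2, NaCl, EDTA and Brij. Activity tracked as NADH loss at 340 nm through a coupled system. Initial-rate data fitted by non-linear regression to give Ki.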

PKC delta kinase = PKC delta kinase (Homo sapiens, UniProt Q05655); assay: PKC delta kinase inhibition, coupled-enzyme NADH absorbance assay (Ki); conditions: 150 μM ATP, 46 nM PKC delta, 30° C.; read-out: Ki PKC delta
Chain of PKC delta kinase (Q05655 whole entry): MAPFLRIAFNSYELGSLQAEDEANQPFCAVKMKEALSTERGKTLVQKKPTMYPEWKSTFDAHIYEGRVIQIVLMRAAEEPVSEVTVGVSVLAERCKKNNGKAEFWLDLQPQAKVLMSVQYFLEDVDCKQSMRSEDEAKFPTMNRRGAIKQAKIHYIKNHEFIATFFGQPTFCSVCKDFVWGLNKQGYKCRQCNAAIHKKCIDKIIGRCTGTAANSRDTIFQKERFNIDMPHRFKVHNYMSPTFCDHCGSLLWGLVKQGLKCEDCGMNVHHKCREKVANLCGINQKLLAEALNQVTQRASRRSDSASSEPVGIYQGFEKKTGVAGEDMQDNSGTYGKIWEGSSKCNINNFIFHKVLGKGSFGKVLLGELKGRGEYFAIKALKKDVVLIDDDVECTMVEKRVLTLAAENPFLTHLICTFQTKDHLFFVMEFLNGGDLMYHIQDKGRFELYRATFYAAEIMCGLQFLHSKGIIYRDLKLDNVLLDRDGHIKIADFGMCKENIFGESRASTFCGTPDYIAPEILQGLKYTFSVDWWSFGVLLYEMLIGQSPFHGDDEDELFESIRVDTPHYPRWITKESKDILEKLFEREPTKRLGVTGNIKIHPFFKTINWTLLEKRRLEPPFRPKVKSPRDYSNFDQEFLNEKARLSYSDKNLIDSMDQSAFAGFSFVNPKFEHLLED
Procedure, shortened: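 Assay buffer was 100 mM HEPES pH 7.5, 10 mM MgCl2, 25 mM NaCl, 0.1 mM EDTA, 0.01% Brij. Enzyme buffer was equilibrated with compound in DMSO for 10 min at 30 °C. Ki values were derived by non-linear regression of initial rate data.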

PKC alpha kinase = PKC alpha kinase (Homo sapiens, UniProt P17252); assay: PKC alpha kinase inhibition, coupled-enzyme NADH absorbance assay (Ki); conditions: 130 μM ATP, 4.5 nM PKC alpha, 30° C.; read-out: Ki PKC alpha

Chain of PKC theta kinase (Q04759 whole entry): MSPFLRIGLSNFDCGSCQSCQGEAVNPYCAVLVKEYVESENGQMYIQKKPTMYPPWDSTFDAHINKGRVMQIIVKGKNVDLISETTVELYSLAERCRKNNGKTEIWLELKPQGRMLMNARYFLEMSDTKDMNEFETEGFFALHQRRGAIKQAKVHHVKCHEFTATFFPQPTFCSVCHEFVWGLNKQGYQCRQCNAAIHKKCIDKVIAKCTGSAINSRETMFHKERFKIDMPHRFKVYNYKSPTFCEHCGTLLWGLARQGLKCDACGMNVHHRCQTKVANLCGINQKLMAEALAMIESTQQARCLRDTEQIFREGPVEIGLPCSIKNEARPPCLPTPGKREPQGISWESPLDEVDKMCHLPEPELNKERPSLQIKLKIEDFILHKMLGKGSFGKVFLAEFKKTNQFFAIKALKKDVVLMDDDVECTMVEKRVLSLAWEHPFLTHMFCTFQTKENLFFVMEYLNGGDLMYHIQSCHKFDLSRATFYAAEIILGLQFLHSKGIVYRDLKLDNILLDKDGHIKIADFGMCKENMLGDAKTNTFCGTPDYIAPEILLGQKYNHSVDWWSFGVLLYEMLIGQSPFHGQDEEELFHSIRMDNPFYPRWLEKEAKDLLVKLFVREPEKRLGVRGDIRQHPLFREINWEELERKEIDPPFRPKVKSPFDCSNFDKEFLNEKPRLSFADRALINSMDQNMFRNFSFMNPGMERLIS

A Ki (PKC theta kinase) of under 50 nM, a Ki (PKC delta kinase) of under 50 nM and a Ki (PKC alpha kinase) of under 500 nM were found for N#CC1(c2cccc(-c3ccnc4[nH]nc(Cl)c34)c2)CC1 [Compound 205] in this work.
A Ki (PKC theta kinase) of under 50 nM, a Ki (PKC delta kinase) of under 50 nM and a Ki (PKC alpha kinase) of under 500 nM were found for CCC(C)(CO)c1cccc(-c2ccnc3[nH]nc(C(F)(F)F)c23)c1 (stereo not drawn) [Compound 318] in this work.
A Ki (PKC theta kinase) of under 500 nM, a Ki (PKC delta kinase) of over 2000 nM and a Ki (PKC alpha kinase) of under 2800 nM were found for CCC(F)c1cc(-c2ccnc3[nH]ncc23)cc(C(C)(C#N)CC)c1 (stereo not drawn) [Compound 106] in this work.
A Ki (PKC theta kinase) of under 50 nM, a Ki (PKC delta kinase) of under 500 nM and a Ki (PKC alpha kinase) of under 500 nM were found for C#CC1(c2cc(C)cc(-c3ccnc4[nH]ncc34)c2)CNC(=O)O1 (stereo not drawn) [Compound 319] in this work.
A Ki (PKC theta kinase) of under 2800 nM, a Ki (PKC delta kinase) of under 2800 nM and a Ki (PKC alpha kinase) of under 2800 nM were found for c1cc(-c2ccnc3[nH]ncc23)cc(C2CCNCC2)c1 [Compound 230] in this work.
A Ki (PKC theta kinase) of over 700 nM, a Ki (PKC delta kinase) of over 2000 nM and a Ki (PKC alpha kinase) of over 1200 nM were found for COc1ccc(C2(C#N)CCC2)cc1-c1ccnc2[nH]ncc12 [Compound 221] in this work.
A Ki (PKC theta kinase) of under 50 nM, a Ki (PKC delta kinase) of under 500 nM and a Ki (PKC alpha kinase) of under 500 nM were found for Cc1cc(-c2ccnc3[nH]nc(C(F)(F)F)c23)cc(C2(CN)CC2)c1 [Compound 282] in this work.
A Ki (PKC theta kinase) of under 50 nM, a Ki (PKC delta kinase) of under 500 nM and a Ki (PKC alpha kinase) of under 500 nM were found for CC(CN)(Cc1ccccc1)c1cccc(-c2ccnc3[nH]ncc23)c1 (stereo not drawn) [Compound 149] in this work.
